Patent US20070142392A1, “Uses of rifamycins” (ActivBiotics, Inc., priority 2005, published 2007)
≈ marks a conversion by molar mass, not a printed value.

Legend:
Format in all cases: cell-based
S. aureus = assay: MIC values, S. aureus (Tables 1-4)
S. pneumo. = assay: MIC values, S. pneumo. (Tables 1-4)
E. faecalis = assay: MIC values, E. faecalis (Tables 1-4)
H. flu = test system: H. flu
E. coli = assay: MIC values, E. coli (Tables 1-4)

Row | SMILES | MIC S. aureus (S. aureus) [µg/mL] | MIC S. pneumo. (S. pneumo.) [µg/mL] | MIC E. faecalis (E. faecalis) [µg/mL] | MIC H. flu (H. flu) [µg/mL] | MIC E. coli (E. coli) [µg/mL]
1 | CO[C@H]1/C=C/O[C@@]2(C)Oc3c(C)c(O)c4c(=O)c(c5oc6cc(N7CCC(NC(=O)N8CCN(C)CC8)CC7)cc(O)c6nc-5c4c3C2=O)NC(=O)/C(C)=C\C=C\[C@H](C)[C@H](O)[C@@H](C)[C@@H](O)[C@@H](C)[C@H](OC(C)=O)[C@@H]1C [Compound 50] | 0.03 (≈ 0.0293 µM) | 0.00012 (≈ 0.000117 µM) | 4 (≈ 3.9 µM) | 0.5 (≈ 0.488 µM) | >8
2 | CCOC(=O)NCC1CCN(c2cc(O)c3nc4c5c6c7c(C)c(O)c5c(=O)c(c-4oc3c2)NC(=O)/C(C)=C\C=C\[C@H](C)[C@H](O)[C@@H](C)[C@@H](O)[C@@H](C)[C@H](OC(C)=O)[C@H](C)[C@@H](OC)/C=C/O[C@@](C)(O7)C6=O)CC1 [Compound 51] | 0.06 (≈ 0.0609 µM) | 0.002 (≈ 0.00203 µM) | 8 (≈ 8.12 µM) | 0.25 (≈ 0.254 µM) | 8 (≈ 8.12 µM)
3 | CO[C@H]1/C=C/O[C@@]2(C)Oc3c(C)c(O)c4c(=O)c(c5oc6cc(N7CCC(NC(=O)OC(C)(C)C)CC7)cc(O)c6nc-5c4c3C2=O)NC(=O)/C(C)=C\C=C\[C@H](C)[C@H](O)[C@@H](C)[C@@H](O)[C@@H](C)[C@H](O)[C@@H]1C [Compound 52] | 0.015 (≈ 0.0157 µM) | 0.00025 (≈ 0.000261 µM) | 4 (≈ 4.18 µM) | 0.12 (≈ 0.125 µM) | >8
4 | COC1C=COC2(C)Oc3c(C)c(O)c4c(=O)c(c5oc6cc(N7CC8C(C7)C8N(C)C)cc(O)c6nc-5c4c3C2=O)NC(=O)C(C)=CC=CC(C)C(O)C(C)C(O)C(C)C(OC(C)=O)C1C (centres unmarked) [Compound 53] | 0.06 (≈ 0.0649 µM) | 0.008 (≈ 0.00865 µM) | 4 (≈ 4.32 µM) | 2 (≈ 2.16 µM) | >8
5 | COC1C=COC2(C)Oc3c(C)c(O)c4c(=O)c(c5oc6cc(N7CC8C(C7)C8N(C)C)cc(O)c6nc-5c4c3C2=O)NC(=O)C(C)=CC=CC(C)C(O)C(C)C(O)C(C)C(O)C1C (centres unmarked) [Compound 54] | 0.008 (≈ 0.00906 µM) | 0.0005 (≈ 0.000566 µM) | 2 (≈ 2.26 µM) | 0.25 (≈ 0.283 µM) | >8
6 | CO[C@H]1/C=C/O[C@@]2(C)Oc3c(C)c(O)c4c(=O)c(c5oc6cc(N7CCC(CNC(C)=O)CC7)cc(O)c6nc-5c4c3C2=O)NC(=O)/C(C)=C\C=C\[C@H](C)[C@H](O)[C@@H](C)[C@@H](O)[C@@H](C)[C@H](OC(C)=O)[C@@H]1C [Compound 55] | 0.008 (≈ 0.00838 µM) | 0.00025 (≈ 0.000262 µM) | 1 (≈ 1.05 µM) | 0.5 (≈ 0.524 µM) | 8 (≈ 8.38 µM)
7 | CO[C@H]1/C=C/O[C@@]2(C)Oc3c(C)c(O)c4c(=O)c(c5oc6cc(N7CCC(CNC(C)=O)CC7)cc(O)c6nc-5c4c3C2=O)NC(=O)/C(C)=C\C=C\[C@H](C)[C@H](O)[C@@H](C)[C@@H](O)[C@@H](C)[C@H](O)[C@@H]1C [Compound 56] | 0.004 (≈ 0.00438 µM) | 0.001 (≈ 0.0011 µM) | 0.12 (≈ 0.131 µM) | 0.25 (≈ 0.274 µM) | 8 (≈ 8.76 µM)
8 | CO[C@H]1/C=C/O[C@@]2(C)Oc3c(C)c(O)c4c(=O)c(c5oc6cc(N7CCC(c8ccccc8)CC7)cc(O)c6nc-5c4c3C2=O)NC(=O)/C(C)=C\C=C\[C@H](C)[C@H](O)[C@@H](C)[C@@H](O)[C@@H](C)[C@H](OC(C)=O)[C@@H]1C [Compound 57] | 0.008 (≈ 0.00833 µM) | 0.0005 (≈ 0.000521 µM) | 2 (≈ 2.08 µM) | 0.5 (≈ 0.521 µM) | 8 (≈ 8.33 µM)
9 | CO[C@H]1/C=C/O[C@@]2(C)Oc3c(C)c(O)c4c(=O)c(c5oc6cc(N7C[C@@H]8CCCN(C)[C@@H]8C7)cc(O)c6nc-5c4c3C2=O)NC(=O)/C(C)=C\C=C\[C@H](C)[C@H](O)[C@@H](C)[C@@H](O)[C@@H](C)[C@H](OC(C)=O)[C@@H]1C [Compound 58] | 0.03 (≈ 0.0319 µM) | 0.004 (≈ 0.00426 µM) | 1 (≈ 1.06 µM) | 0.25 (≈ 0.266 µM) | >8
10 | CO[C@H]1/C=C/O[C@@]2(C)Oc3c(C)c(O)c4c(=O)c(c5oc6cc(N7C[C@@H]8CCCN(C)[C@@H]8C7)cc(O)c6nc-5c4c3C2=O)NC(=O)/C(C)=C\C=C\[C@H](C)[C@H](O)[C@@H](C)[C@@H](O)[C@@H](C)[C@H](O)[C@@H]1C [Compound 59] | 0.004 (≈ 0.00446 µM) | 0.001 (≈ 0.00111 µM) | 0.06 (≈ 0.0669 µM) | 0.12 (≈ 0.134 µM) | 4 (≈ 4.46 µM)
11 | CCOC(=O)NCC1CCN(c2cc(O)c3nc4c5c6c7c(C)c(O)c5c(=O)c(c-4oc3c2)NC(=O)/C(C)=C\C=C\[C@H](C)[C@H](O)[C@@H](C)[C@@H](O)[C@@H](C)[C@H](O)[C@H](C)[C@@H](OC)/C=C/O[C@@](C)(O7)C6=O)CC1 [Compound 60] | 0.008 (≈ 0.00848 µM) | 0.0005 (≈ 0.00053 µM) | 0.5 (≈ 0.53 µM) | 0.06 (≈ 0.0636 µM) | >8
12 | CO[C@H]1/C=C/O[C@@]2(C)Oc3c(C)c(O)c4c(=O)c(c5oc6cc(N7CCC(CCO)CC7)cc(O)c6nc-5c4c3C2=O)NC(=O)/C(C)=C\C=C\[C@H](C)[C@H](O)[C@@H](C)[C@@H](O)[C@@H](C)[C@H](OC(C)=O)[C@@H]1C [Compound 61] | 0.004 (≈ 0.00431 µM) | 0.00012 (≈ 0.000129 µM) | 1 (≈ 1.08 µM) | 0.25 (≈ 0.269 µM) | >8
13 | CO[C@H]1/C=C/O[C@@]2(C)Oc3c(C)c(O)c4c(=O)c(c5oc6cc(N7CCC(c8ccccc8)CC7)cc(O)c6nc-5c4c3C2=O)NC(=O)/C(C)=C\C=C\[C@H](C)[C@H](O)[C@@H](C)[C@@H](O)[C@@H](C)[C@H](O)[C@@H]1C [Compound 62] | 0.015 (≈ 0.0163 µM) | 0.008 (≈ 0.00871 µM) | 8 (≈ 8.71 µM) | 0.5 (≈ 0.545 µM) | >8
14 | COCCOC(=O)NC1CCN(c2cc(O)c3nc4c5c6c7c(C)c(O)c5c(=O)c(c-4oc3c2)NC(=O)/C(C)=C\C=C\[C@H](C)[C@H](O)[C@@H](C)[C@@H](O)[C@@H](C)[C@H](O)[C@H](C)[C@@H](OC)/C=C/O[C@@](C)(O7)C6=O)CC1 [Compound 63] | 0.008 (≈ 0.00834 µM) | 0.002 (≈ 0.00209 µM) | 1 (≈ 1.04 µM) | 0.25 (≈ 0.261 µM) | 8 (≈ 8.34 µM)
15 | CO[C@H]1/C=C/O[C@@]2(C)Oc3c(C)c(O)c4c(=O)c(c5sc6cc(N7C[C@@H](C)N[C@@H](C)C7)ccc6nc-5c4c3C2=O)NC(=O)/C(C)=C\C=C\[C@H](C)[C@H](O)[C@@H](C)[C@@H](O)[C@@H](C)[C@H](OC(C)=O)[C@@H]1C [Compound 64] | 0.004 (≈ 0.00438 µM) | 0.00012 (≈ 0.000131 µM) | 0.12 (≈ 0.131 µM) | 0.25 (≈ 0.274 µM) | 4 (≈ 4.38 µM)
16 | CO[C@H]1/C=C/O[C@@]2(C)Oc3c(C)c(O)c4c(=O)c(c5sc6cc(N7C[C@@H](C)N[C@@H](C)C7)ccc6nc-5c4c3C2=O)NC(=O)/C(C)=C\C=C\[C@H](C)[C@H](O)[C@@H](C)[C@@H](O)[C@@H](C)[C@H](O)[C@@H]1C [Compound 65] | 0.002 (≈ 0.0023 µM) | 0.00025 (≈ 0.000287 µM) | 0.12 (≈ 0.138 µM) | 0.12 (≈ 0.138 µM) | 2 (≈ 2.3 µM)
17 | CO[C@H]1/C=C/O[C@@]2(C)Oc3c(C)c(O)c4c(=O)c(c5oc6cc(N7CCC(CCO)CC7)cc(O)c6nc-5c4c3C2=O)NC(=O)/C(C)=C\C=C\[C@H](C)[C@H](O)[C@@H](C)[C@@H](O)[C@@H](C)[C@H](O)[C@@H]1C [Compound 66] | 0.004 (≈ 0.00451 µM) | 0.0005 (≈ 0.000564 µM) | 0.12 (≈ 0.135 µM) | 0.12 (≈ 0.135 µM) | 4 (≈ 4.51 µM)
18 | CCCS(=O)(=O)NC1CCN(c2cc(O)c3nc4c5c6c7c(C)c(O)c5c(=O)c(c-4oc3c2)NC(=O)/C(C)=C\C=C\[C@H](C)[C@H](O)[C@@H](C)[C@@H](O)[C@@H](C)[C@H](O)[C@H](C)[C@@H](OC)/C=C/O[C@@](C)(O7)C6=O)CC1 [Compound 67] | 0.008 (≈ 0.00831 µM) | 0.001 (≈ 0.00104 µM) | 0.5 (≈ 0.519 µM) | 0.12 (≈ 0.125 µM) | >8
19 | COC1C=COC2(C)Oc3c(C)c(O)c4c(=O)c(c5sc6cc(N7CC(C)N(CC8CC8)CC7C)ccc6nc-5c4c3C2=O)NC(=O)C(C)=CC=CC(C)C(O)C(C)C(O)C(C)C(OC(C)=O)C1C (centres unmarked) [Compound 68] | 0.06 (≈ 0.062 µM) | 0.0005 (≈ 0.000517 µM) | 2 (≈ 2.07 µM) | 0.5 (≈ 0.517 µM) | >8
